According to US20240343728A1, “COMPOUNDS THAT INHIBIT PI3K ISOFORM ALPHA AND METHODS FOR TREATING CANCER” (Scorpion Therapeutics, Inc., priority 2021, published 2024):
pIC50: −log10 of the molar value.

System: T47D pAKT
Experiment: Homogenous Time-Resolved Fluorescence (HTRF) Assay pAKT-T47D
Assay type: cell-based
Settings: Homo sapiens; T47D.1 cell line, PI3Kα H1047R mutation present, HTRF detection pAKT (S473), timepoint 1 hour
Method: Homogenous Time-Resolved Fluorescence (HTRF) Assay—pAKT-T47D
Compounds were assayed using homogeneous time-resolved fluorescence (HTRF).
Gibco RPMI 1640 Medium, no phenol red; Gibco RPMI 1640 Medium; Gibco Trypsin-EDTA (0.5%), no phenol red; Gibco DPBS; Trypan blue solution 0.4% (Corning); Avantor Seradigm Premium Grade Fetal Bovine Serum (FBS); Greiner 784080-384 well TC treated white plates; pAKT (Ser473) HTRF; Gibco Insulin, human recombinant, zinc solution; Gibco Recovery Cell Culture Freezing Medium; Countess II FL Automated Cell Counter (ThermoFisher); Countess II Slides (ThermoFisher); Microscope; and PHERAstar FSX Microplate Reader (BMG LABTECH, Inc.).
The scinamic cell line ID was T47D.1, the HTRF detection was pAKT (S473), a PI3Kα H1047R mutation was present, the seeding density was 5000, the timepoint was 1 hour, and the medium used was RPMI+10% FBS (no phenol red)+0.2 units/ml bovine insulin.
The procedure was as follows: • 1. Prepared ARP: • a. Stamped 12.5 nL from 10 mM source plate to destination plate using Echo. Sealed plate immediately and froze at −20° C. if it was not used on the same day. • b. If a frozen ARP was used, the plate was thawed and spun at 1000 rpm×1 min. • 2. Preparation of cells (adherent): • a. Aspirated media from cells. Washed cells with sterile 1×PBS. Aspirated PBS and added appropriate amount of Trypsin. • b. Once cells were fully trypsinized, added appropriate media to resuspend cells. Transferred cells to a 15 mL or 50 mL conical tube. • c. Counted cells on the Countess II Cell Counter. • 3. Plating of cells: • a. Prepared cells at appropriate plating density. Dispensed 12 μL of diluted cells per well of a Greiner 784080-384 well TC treated white plate using a Multidrop Combi to columns 1-23. Added 12 uL of appropriate phenol free media only to column 24. • b. Placed plates in 37° C. tissue culture incubator for appropriate treatment time (refer to “Assay” table). • 4. Prepared HTRF Lysis Buffer • a. Calculate the amount of HTRF lysis buffer master mix needed to perform the desired experiments plus any extra dead volume required for dispensing (4 μL required per well). Dilute the Blocking Reagent into 4× Lysis Buffer at a ratio of 1:25 (i.e. 0.1 mL Blocking Reagent Solution plus 2.4 mL 4× Lysis Buffer). • b. Add 4 uL Lysis buffer master mix to all wells with sample or DMSO. Centrifuge the plates for 1 minute at 1000 rpm. • c. Incubate at room temperature for 30 minutes. • 5. Prepared HTRF Antibody • a. Calculated the amount of HTRF antibody master mix needed to perform the desired experiments plus any extra dead volume required for dispensing ([…]). Eu Cryptate antibody and d2 antibody were added to detection buffer each at a ratio of 1:40 (i.e. 100 μL Eu Cryptate+100 μL d2 Cryptate+3800 μL detection buffer). • b. 4 μL of antibody master mix was added to each well including the media only column 24. • c. Centrifuged the plates for 1 minute at 1000 rpm. Placed lid on and created a “humidity chamber” by placing the plates into a ziplock bag with wet paper towels or something similar and incubated overnight at room temperature, keeping away from light.
• 6. Measured on the PHERAstar/Envision using the HTRF protocol. When plates were read, all wells were read.

Cc1c(C(Nc2nc3cc(S(C)(=O)=O)ccc3[nH]2)C(F)(F)F)oc2ccc(F)cc12 (racemic) [Compound 6b, 5-(methylsulfonyl)-N-(2,2,2-trifluoro-1-(5-fluoro-3-methylbenzofuran-2-yl)ethyl)-1H-benzo[d]imidazol-2-amine]
pIC50: 6.30 to 6.70

Cc1c([C@@H](Nc2nc3ccc(C#N)cc3[nH]2)C(C)C)oc2ccc(F)cc12 [Compound 1, (S)-2-((1-(5-fluoro-3-methylbenzofuran-2-yl)-2-methylpropyl)amino)-1H-benzo[d]imidazole-6-carbonitrile]
pIC50: ≤ 6.30

Cc1c([C@@H](Nc2nc3ccc(C(N)=O)cc3[nH]2)C(C)C)oc2ccc(F)cc12 [Compound 2, (S)-2-((1-(5-fluoro-3-methylbenzofuran-2-yl)-2-methylpropyl)amino)-1H-benzo[d]imidazole-6-carboxamide]
pIC50: 6.30 to 6.70

Cc1c([C@@H](Nc2nc3ccc(S(N)(=O)=O)cc3[nH]2)C(C)C)oc2ccc(F)cc12 [Compound 3, (S)-2-((1-(5-fluoro-3-methylbenzofuran-2-yl)-2-methylpropyl)amino)-1H-benzo[d]imidazole-6-sulfonamide]
pIC50: > 6.70

Cc1c([C@@H](Nc2nc3ccc(S(C)(=O)=O)cc3[nH]2)C(C)C)oc2ccc(F)cc12 [Compound 4, (S)-N-(1-(5-fluoro-3-methylbenzofuran-2-yl)-2-methylpropyl)-6-(methylsulfonyl)-1H-benzo[d]imidazol-2-amine]
pIC50: > 6.70

Cc1c([C@@H](Nc2nc3cc(S(C)(=O)=O)cnc3[nH]2)C(F)(F)F)oc2ccc(F)cc12 [Compound 5a, (R)-6-(methylsulfonyl)-N-(2,2,2-trifluoro-1-(5-fluoro-3-methylbenzofuran-2-yl)ethyl)-3H-imidazo[4,5-b]pyridin-2-amine]
pIC50: 6.30 to 6.70

Cc1c([C@H](Nc2nc3nc(N)ncc3[nH]2)C(F)(F)F)oc2ccc(F)cc12 [Compound 7b, (S)-N^8-(2,2,2-trifluoro-1-(5-fluoro-3-methylbenzofuran-2-yl)ethyl)-7H-purine-2,8-diamine]
pIC50: 6.30 to 6.70
